Each structure is given as a SMILES string.

For this test, the system named is Plasmodium falciparum. Kind of test: MMV: Compounds (1uM) were screened in a 72hr growth assay monitored by flow cytometry both in the presence and absence of supplemental isopentenyl pyrophosphate (IPP) 200uM. Compounds which fail to show anti-malarial activity when chemically rescued by IPP are therefore specific to the apicoplast. The values are expressed as the ratio of the corresponding activity with and without IPP, respectively. The test is classed as functional, W2.
Take `CN1CCN(c2ccc(Nc3c4ccccc4nc4ccccc34)cc2)CC1`: the Ratio was determined as 0.8.

For `COc1ccc(N2CCN(C(CNC(=O)CC(C)(C)C)c3ccc4c(c3)OCO4)CC2)cc1` (configuration not stated), the Ratio was found to be 0.8841.

As for `CCCCCn1c(=N)n(CC(O)COc2cccc(C)c2)c2ccccc21.Cl` (configuration not stated), the Ratio is given as 1.128.

For the compound `O=C(NCc1ccco1)C1CCN(S(=O)(=O)c2ccc(Br)cc2)CC1`, the Ratio is given as 0.7733.

On to `Cc1cc(NC(=O)c2ccc(-c3ccccc3)cc2)no1`, for which the Ratio is reported as 0.9841.

As for `O=c1cc(NC2CCN(CCCc3ccccc3)CC2)c2cc(Cl)ccc2o1`, the Ratio came out at 1.019.

Turning to `Oc1ccc(-c2nc(-c3ccc4oc5ccc(-c6[nH]c(-c7ccc(O)cc7)nc6-c6ccccc6)cc5c4c3)c(-c3ccccc3)[nH]2)cc1`, the Ratio was 0.8182.

Take `COc1ccc(C(=O)Nc2ccc3nc(N4CCCCC4)cc(C)c3c2)cc1OC`: the Ratio came to 0.7897.

Take `COc1ccc(NC(=O)C2c3ccccc3C(=O)N(CC(C)C)C2c2cccs2)cc1` (configuration not stated): the Ratio is 1.197.

For the compound `Nc1nc(Nc2cccc(F)c2)nc2ccccc12`, the Ratio amounted to 1.176.

`Cc1c(C)n(Cc2ccc(F)cc2)c2ccc(C(=O)NCc3ccco3)cc12`: the Ratio amounted to 1.212.

For the compound `C=CCc1c(C)nc2ccccc2c1O`, the Ratio turned out to be 0.9595.

On to `O=C(Nc1ccccc1O)c1ccc(Oc2cccc(C(=O)Nc3ccccc3O)c2)cc1`, for which the Ratio turned out to be 0.75.

As to `CC(O)(c1ccc(Cl)cc1)C(CN1CCCCC1)c1ccccc1.Cl` (configuration not stated), the Ratio was determined as 0.9286.

Regarding `COc1nc(Nc2ccc(C(C)C)cc2)nc(OC)n1`, the Ratio came to 0.9479.

Take `O=C1c2ccccc2C2=Nc3ccccc3SC(c3cccc(F)c3)C12` (configuration not stated): the Ratio is 0.8676.

Take `CCOc1ccc2nc(C)cc(Nc3ccc(Br)cc3)c2c1`: the Ratio was 1.038.

For the compound `Oc1ccc(Cl)cc1CNc1nc2ccccc2[nH]1`, the Ratio is given as 1.068.

`COc1ccc(CNC(=O)c2cc3c(=O)n4ccccc4nc3n(CCc3ccccc3)c2=N)cc1`: the Ratio is recorded as 0.8046.

Consider `CC1(c2ccccc2)Nc2ccccc2-c2nc3ccccc3n21` (configuration not stated), for which the Ratio is 1.062.

On to `CCN1CCN(c2c(C(=O)c3ccccc3)cnc3cc(OC)c(OC)cc23)CC1`, for which the Ratio stood at 0.9828.

Turning to `COc1ccccc1CNC(=O)CCn1c(=O)[nH]c2ccccc2c1=O`, the Ratio is 1.153.

Take `O=C(NC1CCCCC1)C(c1cccs1)N(CCc1ccccc1)C(=O)c1ccco1` (configuration not stated): the Ratio is reported as 0.9135.

`CCCCCCn1c(=N)n(CC(O)COc2cccc(C)c2)c2ccccc21.Cl` (configuration not stated): the Ratio is listed as 0.9831.

`CN1CCN(c2nc(Nc3ccc(O)cc3)nc3ccccc23)CC1.Cl`: the Ratio was 0.8636.

Regarding `CC1CCN(Cc2ccc(NC(=O)c3cc4ccc5cccnc5c4[nH]3)cc2)CC1`, the Ratio is on record as 1.

Consider `COc1ccc(C(=O)Nc2ccc(Cl)cc2C(=O)Nc2ccncc2)cc1`, for which the Ratio turned out to be 0.8104.

On to `COc1ccc(Nc2nc(NCc3ccccc3)c3ccccc3n2)cc1`, for which the Ratio was 1.093.

For the compound `COc1cc(C(=O)Nc2ccc(-c3nc4ccccc4[nH]3)cc2)cc(OC)c1OC`, the Ratio was 0.6522.

Regarding `CC(=O)c1ccc(NC(=O)CSc2nc(-c3ccccc3Cl)ns2)cc1`, the Ratio was determined as 1.02.

With `CCCc1c(CC)c(=N)c2ccccc2n1C`, the Ratio is listed as 1.043.

With `COc1ccc(NC(=O)C2c3ccccc3C(=O)N(CC(C)C)C2c2cccs2)cc1Cl` (configuration not stated), the Ratio amounted to 0.9242.

On to `CC(=O)Nc1nnc(SCc2c(C)cc(C(C)(C)C)cc2C)s1`, for which the Ratio is listed as 0.8169.

With `O=C(Nc1cccc(-c2nc3ccccc3[nH]2)c1)c1cccc(NC(=O)c2ccco2)c1`, the Ratio came to 0.6407.

In the case of `Cc1ccc(-c2cc(C(=O)Nc3ccc(S(=O)(=O)N4CCCCC4)cc3)[nH]n2)c(O)c1`, the Ratio is reported as 0.875.

With `CCOc1cc(Br)c(C(C)NC(=O)c2cccc(OC)c2)cc1OCC` (configuration not stated), the Ratio was 0.791.

With `COc1ccc(-c2cn3c(C(=O)Nc4ccccc4Cl)c(-c4ccccc4)c4c3n2CCCC4)cc1`, the Ratio is recorded as 1.057.

For the compound `COc1ccccc1C(=O)ON=C(N)Cc1cccc2ccccc12`, the Ratio is 1.06.

Take `CCCCc1c(C)nc2c(OC)cccc2c1O`: the Ratio turned out to be 0.8472.

`CN(C)c1ccc(N=Cc2ccc(N3CCOCC3)cc2)cc1`: the Ratio was 0.9558.

Regarding `CCOC(=O)c1c[nH]c2c(CC)cccc2c1=O`, the Ratio was 0.8986.

For the compound `CC(C)(C)c1ccc(O)c(CNC2CCCCC2)c1`, the Ratio is reported as 0.8356.

As to `Cc1ccc(Nc2nc(-c3ccccn3)cs2)cc1`, the Ratio came to 0.7264.

In the case of `Nc1ccn([C@@H]2O[C@H](CO)[C@@H](O)[C@H]2O)c(=O)n1` [CYTIDINE], the Ratio is on record as 0.6667.

`COc1ccc(CCN2C(=O)c3[nH]nc(-c4cc(Cl)c(C)cc4O)c3C2c2ccccc2F)cc1` (configuration not stated): the Ratio came out at 0.7742.

On to `Nc1ccc(-c2nc3cc(Oc4ccc(Oc5ccc6[nH]c(-c7ccc(N)cc7)nc6c5)cc4)ccc3[nH]2)cc1`, for which the Ratio turned out to be 1.143.

As to `COc1ccc(C2N(C)c3ccccc3N2C)cc1`, the Ratio is 0.8737.

On to `COc1ccccc1N1C(=N)SC(=Cc2ccc(OCc3ccccc3F)cc2)C1=O`, for which the Ratio is 1.033.

For the compound `CCOC(=O)c1ccc2nc(-c3ccccc3)cc(O)c2c1`, the Ratio is given as 0.3465.

With `O=C(Nc1ccc(Cl)cc1C(=O)Nc1ccncc1)c1ccc(Cl)cc1Cl`, the Ratio stood at 0.7485.

Turning to `CCn1nc(-c2ccc(C(=O)OC)cc2)nc2c(=O)n(C)c(=O)nc1-2`, the Ratio was found to be 1.058.

As for `O=c1nc(C=Cc2ccc(Cl)cc2)oc2ccccc12`, the Ratio is recorded as 0.9697.

In the case of `CCOC(=O)c1cnc2ccc(CC)cc2c1O`, the Ratio is given as 1.

Regarding `CCOc1ccc(-c2nc(NC(=O)c3cccc(S(C)(=O)=O)c3)sc2C)cc1`, the Ratio is on record as 0.4367.

Consider `CN1CCN(c2c3c(c(C#N)c4nc5ccccc5n24)CCC3)CC1`, for which the Ratio stood at 1.032.

As for `CCCN(CCC)CC(O)COc1ccccc1C(=O)Nc1ccccc1` (configuration not stated), the Ratio is listed as 0.8553.

Regarding `O=C(Nc1ccc(-c2nc3cc4ccccc4cc3[nH]2)cc1)c1cccc(Br)c1`, the Ratio amounted to 1.254.

With `COc1ccc(CN2CCN(Cc3ccccc3)CC2)c(O)c1`, the Ratio is 1.283.

As to `O=C(Nc1ccc(C23CC4CC(CC(c5ccccc5)(C4)C2)C3)cc1)c1cccs1`, the Ratio is listed as 0.9231.

As for `COc1ccc(C=C2SC(Nc3ccc(F)cc3)=NC2=O)c(OC)c1`, the Ratio is 0.9324.

For `COc1ccc2nc(C)cc(Nc3ccc(Cl)cc3)c2c1`, the Ratio was determined as 0.8189.

For `Cc1ccc(-c2cc3nc4c(c(O)n3n2)CCCC4)cc1`, the Ratio turned out to be 0.9459.

In the case of `COc1ccccc1CNC(=O)C1c2ccccc2C(=O)N(CC(C)C)C1c1cccs1` (configuration not stated), the Ratio is recorded as 1.038.

For the compound `COc1ccc(CCN2CCC(CN(C)Cc3cnn(-c4ccccc4)c3)CC2)cc1`, the Ratio came out at 0.8571.

As to `CCC(O)c1ccc(Br)cc1NC(=O)c1cccc(Cl)c1` (configuration not stated), the Ratio is reported as 1.

In the case of `Cc1ccc(C2CC(C(F)(F)F)n3nc(C(=O)N4CCN(C(c5ccccc5)c5ccccc5)CC4)cc3N2)cc1` (configuration not stated), the Ratio is on record as 0.725.

Turning to `CCN(CC)CCCNc1ccnc2cc3ccccc3cc12`, the Ratio was 0.9344.

On to `COc1cccc(C2(C)Nc3ccccc3-c3nc4ccccc4n32)c1` (configuration not stated), for which the Ratio amounted to 1.163.

For `COc1ccc(CN2CCCC(C(=O)c3ccc(C(F)(F)F)cc3)C2)c(O)c1` (configuration not stated), the Ratio was determined as 0.8852.

Take `CN1c2ccccc2N(C)C1c1ccc2c(c1)OCO2`: the Ratio came out at 0.7561.

Take `O=C(NCCCN1CCC(N2CCCCC2)CC1)C1=Cc2cc(Br)ccc2OC1`: the Ratio was 0.8966.

On to `COc1cccc(Nc2nc(NCCO)c3ccccc3n2)c1.Cl`, for which the Ratio came out at 0.7297.

For `CN1C=C(c2ccc3ccccc3n2)C(c2c[nH]c3ccccc23)c2ccccc21` (configuration not stated), the Ratio is recorded as 1.295.

As to `COc1ccc(C2NCCc3c2[nH]c2ccccc32)cc1CN1CCN(c2ccc(F)cc2)CC1.Cl` (configuration not stated), the Ratio worked out at 0.8727.

Take `OC(CNC1CCCCC1)Cn1c2ccc(I)cc2c2cc(I)ccc21` (configuration not stated): the Ratio was 1.043.

In the case of `CCCc1c(C)nc2ccccc2c1O`, the Ratio is on record as 0.9683.

Consider `O=C(Nc1ccc(-c2nc3ccccc3[nH]2)cc1)c1ccc(Cl)c(Cl)c1`, for which the Ratio is listed as 0.9295.

`O=C1CC(O)(C(F)(F)C(F)(F)F)Oc2ccccc21` (configuration not stated): the Ratio is 0.8205.

`CCOc1ccccc1CN1CCc2nc3cc(C(C)(C)C)nn3c(O)c2C1`: the Ratio was found to be 0.8444.

Consider `CCN(Cc1ccccc1)C1CCN(Cc2cc(Br)ccc2O)CC1.O=C(O)C(=O)O`, for which the Ratio is reported as 0.9701.

On to `O=C(NC1CCN(Cc2ccccc2)CC1)c1cc(-c2ccncc2)nc2ccc(Cl)cc12`, for which the Ratio is reported as 0.7749.

In the case of `Cc1cccc(-n2ncc3c(O)nc(-n4nc(C)cc4NC(=O)c4cc5ccccc5o4)nc32)c1`, the Ratio stood at 0.6055.

For the compound `Cc1cc(N2CCCC2)nc(Nc2ccc(NC(=O)CCc3ccccc3)cc2)n1`, the Ratio is reported as 0.9077.

Consider `COc1ccc(C2=C(c3ccc(OC)cc3)C3(c4ccccc4)C(=O)C2(c2ccccc2)C2C(=O)N(c4ccc(C)cc4)C(=O)C23)cc1` (configuration not stated), for which the Ratio is on record as 1.0625.

Take `CCOc1c(Br)cc(C2C(C(=O)OC)=CN(C)C=C2C(=O)OC)cc1OC`: the Ratio worked out at 1.02.

`COc1ccc(C(O)(CCC(C)C)C(CN2CCOCC2)c2ccc(Cl)cc2)cc1.Cl` (configuration not stated): the Ratio was determined as 1.06.

Take `COc1cccc(C(=O)Nc2ccc(-c3nc4ccccc4[nH]3)cc2)c1`: the Ratio is 0.7651.

On to `CC(C)CNC(=O)c1c(N)n(CCc2ccccc2F)c2nc3ccccc3nc12`, for which the Ratio stood at 0.63.

As for `O=C1c2ccccc2-c2nnc(-c3ccc(Br)cc3)cc21`, the Ratio stood at 0.8889.

For `CCOc1ccc(-n2cc(-c3ccccc3)c3c(SCc4cc(C)ccc4C)ncnc32)cc1`, the Ratio worked out at 0.9394.

For the compound `COc1ccc2nc(C)cc(Nc3cccc(O)c3)c2c1.Cl`, the Ratio is 1.191.

Regarding `CCCn1c(=N)c(C(=O)NC2CCCCC2)cc2c(=O)n3cccc(C)c3nc21`, the Ratio was found to be 0.8.

The values are drawn from ChEMBL document CHEMBL2448809, “UCSF DeRisi Lab MMV Box Apicoplast Screening”.
